Where two headings read alike, the source gives them in different places.
Tests used:
Parameters in all cases: host or cells: CHO cells, stably transfected
M3 muscarinic receptor = M3 muscarinic receptor (Homo sapiens, UniProt P20309); assay: [3H]NMS competition binding, M3 CHO membranes; details: competition with 1 nM [3H]NMS; read-out: Inhibition constants (Ki) as negative logarithms, M3 (converted)
M4 muscarinic receptor [1] = biological target: T1, M4 muscarinic receptor (Homo sapiens, UniProt P08173); assay: [3H]NMS competition binding, M4 CHO membranes
T1 sequence (P08173 1-479): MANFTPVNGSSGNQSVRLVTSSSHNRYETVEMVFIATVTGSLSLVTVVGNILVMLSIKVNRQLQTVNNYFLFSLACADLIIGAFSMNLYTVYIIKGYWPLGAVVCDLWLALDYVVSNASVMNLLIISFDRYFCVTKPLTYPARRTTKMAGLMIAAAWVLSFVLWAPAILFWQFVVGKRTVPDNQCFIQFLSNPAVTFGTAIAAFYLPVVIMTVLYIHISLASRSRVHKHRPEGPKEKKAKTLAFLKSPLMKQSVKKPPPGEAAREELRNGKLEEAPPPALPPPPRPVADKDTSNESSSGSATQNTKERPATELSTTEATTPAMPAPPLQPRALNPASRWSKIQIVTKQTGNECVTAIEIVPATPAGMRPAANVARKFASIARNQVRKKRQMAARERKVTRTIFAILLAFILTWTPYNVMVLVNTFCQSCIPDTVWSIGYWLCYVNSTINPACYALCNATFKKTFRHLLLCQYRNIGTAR

M1 muscarinic receptor = biological target: T2, M1 muscarinic receptor (Homo sapiens, UniProt P11229); assay: accumulation of inositol phosphates IPX, M1 CHO cells (M1Gq); assay type: cell-based; details: for Kd: operational model, read-out: pKA (converted); for EC50: read-out: pEC50 (converted)
T2 sequence (P11229 1-460): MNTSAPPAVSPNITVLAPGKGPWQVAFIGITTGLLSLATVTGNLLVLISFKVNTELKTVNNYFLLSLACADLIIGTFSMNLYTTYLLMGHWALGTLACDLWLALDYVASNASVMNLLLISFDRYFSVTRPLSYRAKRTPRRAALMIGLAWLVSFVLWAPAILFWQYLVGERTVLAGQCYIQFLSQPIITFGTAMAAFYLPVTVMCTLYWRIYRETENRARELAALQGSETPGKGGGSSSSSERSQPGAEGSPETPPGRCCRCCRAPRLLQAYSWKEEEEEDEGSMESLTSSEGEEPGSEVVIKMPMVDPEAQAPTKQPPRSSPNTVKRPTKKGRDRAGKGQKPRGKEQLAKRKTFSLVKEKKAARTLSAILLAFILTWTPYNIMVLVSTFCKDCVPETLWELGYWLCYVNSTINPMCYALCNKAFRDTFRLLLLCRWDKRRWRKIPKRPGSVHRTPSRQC

M2 muscarinic receptor = biological target: T3, M2 muscarinic receptor (Homo sapiens, UniProt P08172); assay: inhibition of forskolin-stimulated cAMP, M2 CHO cells (M2Gi); assay type: cell-based; details: for Emax: CHO, read-out: E′MAX; for Kd: operational model, read-out: pKA (converted); for EC50: read-out: pEC50 (converted)
T3 sequence (P08172 1-466): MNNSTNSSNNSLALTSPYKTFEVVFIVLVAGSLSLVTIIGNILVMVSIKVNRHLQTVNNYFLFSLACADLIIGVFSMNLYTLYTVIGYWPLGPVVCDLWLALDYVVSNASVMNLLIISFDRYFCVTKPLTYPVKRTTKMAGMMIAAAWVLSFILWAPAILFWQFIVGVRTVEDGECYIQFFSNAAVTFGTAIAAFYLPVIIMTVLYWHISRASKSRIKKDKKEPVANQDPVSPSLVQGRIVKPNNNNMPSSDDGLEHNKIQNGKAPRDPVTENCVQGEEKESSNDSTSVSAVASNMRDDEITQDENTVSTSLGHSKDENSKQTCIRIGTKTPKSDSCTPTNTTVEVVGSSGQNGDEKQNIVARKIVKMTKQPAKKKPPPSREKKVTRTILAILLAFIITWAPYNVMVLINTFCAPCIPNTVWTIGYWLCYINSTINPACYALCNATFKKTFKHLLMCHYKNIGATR

M4 muscarinic receptor [2] = biological target: T1, M4 muscarinic receptor; assay: inhibition of forskolin-stimulated cAMP, M4 CHO cells (M4Gi); assay type: cell-based; details: for Emax: CHO, read-out: E′MAX; for Kd: read-out: pKA (converted); for EC50: read-out: pEC50 (converted)
M5 muscarinic receptor = biological target: T4, M5 muscarinic receptor (Homo sapiens, UniProt P08912); assay: accumulation of IPX, M5 CHO cells (M5Gq); assay type: cell-based; details: for EC50: read-out: pEC50 (converted)
T4 sequence (P08912 1-532): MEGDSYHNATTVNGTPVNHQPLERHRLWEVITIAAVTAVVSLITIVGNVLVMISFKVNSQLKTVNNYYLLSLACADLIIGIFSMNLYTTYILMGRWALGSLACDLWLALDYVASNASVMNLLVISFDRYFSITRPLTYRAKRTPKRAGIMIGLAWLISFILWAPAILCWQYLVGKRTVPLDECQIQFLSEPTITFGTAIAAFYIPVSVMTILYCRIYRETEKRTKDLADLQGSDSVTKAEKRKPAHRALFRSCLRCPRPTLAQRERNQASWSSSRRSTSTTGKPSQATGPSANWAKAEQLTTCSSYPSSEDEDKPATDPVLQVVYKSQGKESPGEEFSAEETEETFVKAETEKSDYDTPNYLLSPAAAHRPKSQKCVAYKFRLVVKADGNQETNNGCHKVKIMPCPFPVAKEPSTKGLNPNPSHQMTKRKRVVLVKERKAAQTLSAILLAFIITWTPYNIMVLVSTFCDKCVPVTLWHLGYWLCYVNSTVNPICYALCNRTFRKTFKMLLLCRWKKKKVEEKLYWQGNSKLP

[3] = M1 (↑IPX), preferential response, Table 7
[4] = M1 (↑IPX), preferential response, Table 7, operational efficacy
[5] = M1 (↑IPX), preferential response, relative to carbachol, Tables 2, 3, 7
[6] = M1 (↑IPX), preferential response, to carbachol, Tables 2, 3, 7
[7] = M2 (↓cAMP), preferential response, Table 7
[8] = M2 (↓cAMP), preferential response, Table 7, operational efficacy
[9] = M2 (↓cAMP), preferential response, to carbachol, Tables 2, 3, 7
[10] = M4 (↓cAMP), preferential response, Table 7
[11] = M4 (↓cAMP), preferential response, Table 7, operational efficacy
[12] = M4 (↓cAMP), preferential response, Table 7, operational model
[13] = M4 (↓cAMP), preferential response, relative to carbachol, Tables 2, 3, 7
[14] = M4 (↓cAMP), preferential response, to carbachol, Tables 2, 3, 7
[15] = M5 (↑IPX), preferential response, Table 7
[16] = M5 (↑IPX), preferential response, relative to carbachol, Tables 2, 3, 7
[17] = M2Gi (↓cAMP), Table 8, to carbachol
[18] = M4Gi (↓cAMP), Table 8, to carbachol

Chain of M3 muscarinic receptor (P20309 whole entry): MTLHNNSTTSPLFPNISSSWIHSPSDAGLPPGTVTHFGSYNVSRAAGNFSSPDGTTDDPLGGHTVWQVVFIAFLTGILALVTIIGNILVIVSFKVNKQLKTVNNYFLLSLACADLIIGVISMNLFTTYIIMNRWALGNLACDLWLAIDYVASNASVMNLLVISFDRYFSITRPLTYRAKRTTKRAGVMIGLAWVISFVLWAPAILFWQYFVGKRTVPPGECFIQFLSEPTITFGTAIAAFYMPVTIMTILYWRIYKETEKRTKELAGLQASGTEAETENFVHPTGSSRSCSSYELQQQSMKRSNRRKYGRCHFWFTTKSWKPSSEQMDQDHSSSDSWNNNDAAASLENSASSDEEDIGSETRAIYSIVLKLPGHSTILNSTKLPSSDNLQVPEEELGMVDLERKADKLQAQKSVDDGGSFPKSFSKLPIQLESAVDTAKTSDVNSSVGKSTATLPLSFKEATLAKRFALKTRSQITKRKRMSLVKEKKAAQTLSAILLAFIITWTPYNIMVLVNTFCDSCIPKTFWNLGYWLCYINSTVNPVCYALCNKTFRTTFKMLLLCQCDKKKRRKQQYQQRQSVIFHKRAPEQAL

## Cc1ccc(C[N+]2(C)CC=CCC2)s1.[I-] (centres unmarked) [Compound 7B, 1-methyl-1-[(5-methylthiophen-2-yl)methyl]-1,2,3,6-tetrahydropyridin-1-ium iodide]
M3 muscarinic receptor
  Ki: 5.25 µM
M4 muscarinic receptor [1]; competition with 1 nM [3H]NMS, read-out: Inhibition constants (Ki) as negative logarithms, M4 (converted)
  Ki: 4.37 µM
M4 muscarinic receptor [1]; fraction of binding to M4
  binding that occurred with high affinity: ~10%
M4 muscarinic receptor [1]; high-affinity fraction of binding to M4, read-out: high affinity binding
  Ki: ~0.03 µM
M1 muscarinic receptor; [3]
  E′MAX: 3.9 ± 0.4 fold over basal
  Kd: 5.01 µM
  EC50: 5.01 µM
M1 muscarinic receptor; [4]
  τ: 0.09 ± 0.01
M1 muscarinic receptor; [5]
  RAi: 0.0058 ± 0.0007
M1 muscarinic receptor; [6]
  Δlog(τ/KA): 2.24 ± 0.18
M2 muscarinic receptor; [7]
  Emax: 36 ± 1%
  Kd: 1.58 µM
  EC50: 0.933 µM
M2 muscarinic receptor; [8]
  τ: 0.69 ± 0.07
M2 muscarinic receptor; M2 (↓cAMP), preferential response, relative to carbachol, Tables 2, 3, 7
  RAi: 0.029 ± 0.002
M2 muscarinic receptor; [9]
  Δlog(τ/KA): 1.48 ± 0.15
M4 muscarinic receptor [2]; [10]
  Emax: 30 ± 1%
  EC50: 2.88 µM
M4 muscarinic receptor [2]; [11]
  τ: 0.51 ± 0.05
M4 muscarinic receptor [2]; [12]
  Kd: 3.98 µM
M4 muscarinic receptor [2]; [13]
  RAi: 0.0087 ± 0.0009
M4 muscarinic receptor [2]; [14]
  Δlog(τ/KA): 1.90 ± 0.18
M5 muscarinic receptor; [15]
  E′MAX: 1.47 ± 0.07 fold over basal
  EC50: 4.37 µM
M5 muscarinic receptor; M5 (↑IPX), preferential response, Table 7, operational efficacy
  τ: 0.02 ± 0.01
M5 muscarinic receptor; M5 (↑IPX), preferential response, Table 7, operational model, read-out: pKA (converted)
  Kd: 5.01 µM
M5 muscarinic receptor; [16]
  RAi: 0.0021 ± 0.0009
M5 muscarinic receptor; M5 (↑IPX), preferential response, to carbachol, Tables 2, 3, 7
  Δlog(τ/KA): 2.67 ± 0.41

## C1=CCN(Cc2cccs2)CC1.Cl [Compound 6A, 1-[(thiophen-2-yl)methyl]-1,2,3,6-tetrahydropyridin-1-ium chloride]
M3 muscarinic receptor
  Ki: 37.2 µM
M4 muscarinic receptor [1]; at M4 receptors, read-out: Inhibition constants Ki
  Ki: 54 µM
M1 muscarinic receptor; [3]
  E′MAX: 2.0 ± 0.2 fold over basal
  Kd: 7.94 µM
  EC50: 7.94 µM
M1 muscarinic receptor; [4]
  τ: 0.03 ± 0.01
M1 muscarinic receptor; [5]
  RAi: 0.0010 ± 0.0001
M1 muscarinic receptor; [6]
  Δlog(τ/KA): 2.98 ± 0.26
M1 muscarinic receptor; M1Gq (↑IPX), Table 8
  E′MAX: 2.0 ± 0.2 fold increase
  pEC50: 5.1 ± 0.1
  pKA: 5.1 ± 0.2
  τ: 0.03 ± 0.01
M1 muscarinic receptor; M1Gq (↑IPX), Table 8, relative to carbachol
  RAi: 0.0011 ± 0.0007
M1 muscarinic receptor; M1Gq (↑IPX), Table 8, to carbachol
  Δlog(τ/KA): 2.96 ± 0.86
M2 muscarinic receptor; [7]
  Emax: 50 ± 2%
  Kd: 1.58 µM
  EC50: 0.724 µM
M2 muscarinic receptor; [8]
  τ: 1.32 ± 0.08
M2 muscarinic receptor; M2Gi (↓cAMP), Table 8
  E′MAX: 50 ± 2 % inhibition
  pEC50: 6.14 ± 0.05
  pKA: 5.8 ± 0.1
  τ: 1.3 ± 0.1
M2 muscarinic receptor; M2Gi (↓cAMP), Table 8, relative to carbachol
  RAi: 0.067 ± 0.007
M2 muscarinic receptor; [17]
  Δlog(τ/KA): 1.22 ± 0.08
M4 muscarinic receptor [2]; [10]
  Emax: 25 ± 2%
  EC50: 4.27 µM
M4 muscarinic receptor [2]; [11]
  τ: 0.39 ± 0.04
M4 muscarinic receptor [2]; [12]
  Kd: 6.31 µM
M4 muscarinic receptor [2]; [13]
  RAi: 0.0046 ± 0.0004
M4 muscarinic receptor [2]; [14]
  Δlog(τ/KA): 2.15 ± 0.16
M4 muscarinic receptor [2]; M4Gi (↓cAMP), Table 8
  E′MAX: 25 ± 2 % inhibition
  τ: 0.39 ± 0.04
  EC50: 8.51 µM
  Kd: 12.6 µM
M4 muscarinic receptor [2]; M4Gi (↓cAMP), Table 8, relative to carbachol
  RAi: 0.0046 ± 0.0004
M4 muscarinic receptor [2]; [18]
  Δlog(τ/KA): 2.15 ± 0.16
M5 muscarinic receptor; [15]
  E′MAX: 1.19 ± 0.04 fold over basal
  EC50: 1.58 µM
M5 muscarinic receptor; [16]
  RAi: 0.0025 ± 0.0008
M5 muscarinic receptor; M5Gq (↑IPX), Table 8
  E′MAX: 1.16 ± 0.04 fold over basal
  EC50: 1.58 µM
M5 muscarinic receptor; M5Gq (↑IPX), Table 8, relative to carbachol
  RAi: 0.0023 ± 0.0007

## C[N+](C)(C)CCOC(N)=O [carbachol, reference compound]
M2 muscarinic receptor; [7]
  E′MAX: 44 ± 1 % inhibition
M2 muscarinic receptor; [9]
  Δlog(τ/KA): 0
M2 muscarinic receptor; M2Gi (↓cAMP), Table 8
  E′MAX: 44 ± 1 % inhibition
M2 muscarinic receptor; [17]
  Δlog(τ/KA): 0
M4 muscarinic receptor [2]; [10]
  E′MAX: 55 ± 2 % inhibition
M4 muscarinic receptor [2]; [11]
  τ: 1.41 ± 0.08
M4 muscarinic receptor [2]; [14]
  Δlog(τ/KA): 0
M4 muscarinic receptor [2]; M4Gi (↓cAMP), Table 8
  E′MAX: 55 ± 2 % inhibition
  τ: 1.4 ± 0.1
M4 muscarinic receptor [2]; [18]
  Δlog(τ/KA): 0

Source: patent US11591323B2, “Muscarinic agonists as non-steroidal and non-opioid analgesics and methods of use thereof” (Barry University, priority 2019, dated 2023)
